Measured values taken from US20240228448A1 (Washington University, priority 2021, published 2024).

What was measured:
[1] = Log D7.4 measurement (1-octanol/PBS buffer); assay type: physicochemical; details: pH 7.4, n=3
Experimental: Partition coefficient was measured by mixing the [^18F]FS1P1 sample with 3 mL each of 1-octanol and buffer that is 0.1 M phosphate and pH equals 7.4 in a test tube. The mixture in the test tube was vortexed for 20 sec followed by centrifugation for 1 min at room temperature. Then 2 mL of the organic layer was transferred to a second test tube, and 1 mL of 1-octanol and 3 mL of PBS buffer were added. The resulting mixture was vortexed for 20 sec, followed by centrifugation for 1 min at room temperature. Then 1 mL of the organic and aqueous layer were taken separately for measurement. The radioactivity content values (count per minute) of two samples (1 mL each) from the 1-octanol and buffer layers were counted using a gamma counter. The partition coefficient Log D7.4 was determined by calculating as the decimal logarithm the ratio of cpm/mL between 1-octanol and PBS buffer. The measurements were repeated three times. The value of the partition coefficient is 2.62±0.31.

[2] = Radiometabolite analysis of nonhuman primate plasma samples; assay type: in vivo, macaque; details: for percentage of the parental radiotracer of total radioactivity: macaque plasma
Experimental: HPLC radiometabolite analysis of the macaque plasma samples collected at different time points post-injection of [^18F]FS1P1 was performed as previously reported (H. Liu, et al., Mol. Imaging Biol., 2020, 22, 1362-1369.). A male macaque (˜10 kg) was intravenously injected with ˜0.35 GBq of [^18F]FS1P1. […] Plasma (400 μL) was then collected and mixed with 1.2 mL ice-cold acetonitrile to deproteinize. […] The eluted fractions were collected at one-minute intervals for a total of 16 minutes, the radioactivity of each fraction collection was counted in an automated gamma counter (Beckman, Brea, CA), and results were corrected by background radioactive counts and physical decay. The chromatography was regenerated represented by the percentage that was calculated by radioactivity count of every minute collection divided by the total injection amount on the HPLC system and multiplied by 100.

S1P1 = biological target: T1, S1P1 (Rattus norvegicus, UniProt P48303); experiment: In vitro autoradiography of rat spinal cord and brain sections with CS1P1 blocking; assay type: binding; details: blocked by CS1P1 (5 μM), in words
T1 construct: conducted on rat spinal cord and brain section incubated with [^18F]FS1P1; from tissue; host or cells: rat brain (cortex, hippocampus) and spinal cord sections
T1 sequence (P48303 whole entry): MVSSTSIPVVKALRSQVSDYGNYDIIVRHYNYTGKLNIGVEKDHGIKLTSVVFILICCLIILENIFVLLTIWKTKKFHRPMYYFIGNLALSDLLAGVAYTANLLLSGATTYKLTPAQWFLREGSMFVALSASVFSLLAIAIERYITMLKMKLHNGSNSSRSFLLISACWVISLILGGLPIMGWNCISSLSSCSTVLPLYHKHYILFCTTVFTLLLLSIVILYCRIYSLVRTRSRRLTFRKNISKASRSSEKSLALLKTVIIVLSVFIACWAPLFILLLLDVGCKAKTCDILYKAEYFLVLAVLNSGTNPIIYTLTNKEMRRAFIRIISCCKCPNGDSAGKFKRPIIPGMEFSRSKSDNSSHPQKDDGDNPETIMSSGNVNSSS

[3] = MicroPET brain study in cynomolgus macaque; details: macaque brain
Experimental: Using a Focus 220 microPET scanner to collect dynamic scans for 2 hours after intravenous injection of ˜0.35 GBq dose into male macaques. Radiometabolites were measured from arterial blood samples collected at 5, 15, 30, and 60 min post-injection of radiotracer. The HPLC eluent was collected, and fractions were counted in a gamma counter.
Male macaques (˜10 kg) were used for PET imaging data acquisition with a microPET Focus 220 scanner (Siemens Inc., Knoxville, TN). Animals were anesthetized using ketamine and glycopyrrolate and maintained with inhalation of isoflurane. Core temperature was kept at 37° C. with a heated water blanket. The head was secured in a customized head holder. […] Emission data were corrected for dead time, scatter, and attenuation and then reconstructed. […] Predefined brain regions of interest from the template were applied to the co-registered PET image to obtain regional time-activity curves. The measurement of the brain uptake of radiotracer was standardized to body weight and the dose of radioactivity injected to yield a standardized uptake value (SUV).
The brain uptakes of these tracers were measured by Focus 220 microPET scanner to collect dynamic scans for 2 hours after intravenous injection of ˜0.35 GBq dose into male cynomolgus macaques (8-9 kg).

For `Cc1ccccc1-c1ccc(-c2nc(-c3ccc(CN(C)CCC(=O)O)c([18F])c3)no2)cc1C(F)(F)F` [[^18F]FS1P1], the “Log D7.4” value [1] was 2.62±0.31, the logD [1] was 2.62 ± 0.31 and the “radiometabolites in macaque plasma” value ([2]; 5, 15, 30, and 60 min post injection, in words) was “No major metabolite was detected”. For the same compound, the “percentage of the parental radiotracer of total radioactivity” value (shortened to “percentage”) ([2]; 5 min post-injection) was 96%, the “percentage” value ([2]; 15 min post-injection) was 96% and the “percentage” value ([2]; 30 min post-injection) was 94%. For the same compound, the “percentage” value ([2]; 60 min post-injection) was 88%, the “autoradiography signal and blocking” value (S1P1) was “strong signal, which was blocked” and the “brain uptake, standard uptake value (SUV)” value ([3]; 120 min post-injection) was about 2.3. For the same compound, the “brain uptake, maximum SUV value” ([3]; from 20 to 120 min post-injection) was about 2.3.
